Assay results published in the supplement of paper PMC10307832.

Experiments:
Experiment in all cases: relative viability (nuclei count vs DMSO), 5 days (fraction); higher = more cells survive
NCI-H647 = test system: NCI-H647
Summary of the method: (§1)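 Lung cancer cell lines in 1536-well plates were dosed by pin tool the day after seeding, either with one drug alone or with a fixed anchor-drug dose plus five library-drug doses (not always all listed) in √10 steps. After 5 days, cells were fixed and their nuclei stained in one step (final 0.05% Triton X-100, 1% formaldehyde, 1 ug/ml Hoechst), then counted on 4× images. Relative viability is the nuclei count in treated wells divided by that in vehicle wells. Values are medians of duplicate plates.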

NCI-H1437 = test system: NCI-H1437
Summary of the method: as §1

HCC-15 = test system: HCC-15
Summary of the method: as §1

NCI-H1651 = test system: NCI-H1651
Summary of the method: as §1

HCC-827 = test system: HCC-827
Summary of the method: as §1

UMC-11 = test system: UMC-11
Summary of the method: as §1

201T = test system: 201T
Summary of the method: as §1

EPLC-272H = test system: EPLC-272H
Summary of the method: as §1

COR-L 105 = test system: COR-L 105
Summary of the method: as §1

NCI-H727 = test system: NCI-H727
Summary of the method: as §1

NCI-H2087 = test system: NCI-H2087
Summary of the method: as §1

H3255 = test system: H3255
Summary of the method: as §1

COR-L23 = test system: COR-L23
Summary of the method: as §1

NCI-H1792 = test system: NCI-H1792
Summary of the method: as §1

NCI-H1975 = test system: NCI-H1975
Summary of the method: as §1

EKVX = test system: EKVX
Summary of the method: as §1

NCI-H358 = test system: NCI-H358
Summary of the method: as §1

NCI-H1650 = test system: NCI-H1650
Summary of the method: as §1

HCC-44 = test system: HCC-44
Summary of the method: as §1

ABC-1 = test system: ABC-1
Summary of the method: as §1

NCI-H520 = test system: NCI-H520
Summary of the method: as §1

LCLC-103H = test system: LCLC-103H
Summary of the method: as §1

NCI-H661 = test system: NCI-H661
Summary of the method: as §1

Structure (SMILES): Cc1cnc(-c2cnc(NCCNc3ccc(C#N)cn3)nc2-c2ccc(Cl)cc2Cl)[nH]1 + O=C(c1cc(Cc2n[nH]c(=O)c3ccccc23)ccc1F)N1CCN(C(=O)C2CC2)CC1 [Olaparib] (partner 8 µM)
- relative viability (NCI-H647; first compound 0.08 µM): 0.528
- relative viability (NCI-H647; first compound 0.253 µM): 0.558
- relative viability (NCI-H647; first compound 0.8 µM): 0.528
- relative viability (NCI-H647; first compound 2.53 µM): 0.429
- relative viability (NCI-H1437; first compound 0.08 µM): 0.605
- relative viability (NCI-H1437; first compound 0.253 µM): 0.606
- relative viability (NCI-H1437; first compound 0.8 µM): 0.596
- relative viability (NCI-H1437; first compound 2.53 µM): 0.598
- relative viability (HCC-15; first compound 0.08 µM): 0.77
- relative viability (HCC-15; first compound 0.253 µM): 0.653
- relative viability (HCC-15; first compound 0.8 µM): 0.721
- relative viability (HCC-15; first compound 2.53 µM): 0.737
- relative viability (NCI-H1651; first compound 0.08 µM): 0.175
- relative viability (NCI-H1651; first compound 0.253 µM): 0.192
- relative viability (NCI-H1651; first compound 0.8 µM): 0.2
- relative viability (NCI-H1651; first compound 2.53 µM): 0.182
- relative viability (HCC-827; first compound 0.08 µM): 0.582
- relative viability (HCC-827; first compound 0.253 µM): 0.514
- relative viability (HCC-827; first compound 0.8 µM): 0.572
- relative viability (HCC-827; first compound 2.53 µM): 0.561
- relative viability (UMC-11; first compound 0.08 µM): 0.413
- relative viability (UMC-11; first compound 0.253 µM): 0.997
- relative viability (UMC-11; first compound 0.8 µM): 0.343
- relative viability (UMC-11; first compound 2.53 µM): 0.352
- relative viability (201T; first compound 0.08 µM): 0.848
- relative viability (201T; first compound 0.8 µM): 0.81
- relative viability (201T; first compound 2.53 µM): 0.834
- relative viability (EPLC-272H; first compound 0.08 µM): 0.731
- relative viability (EPLC-272H; first compound 0.253 µM): 0.779
- relative viability (EPLC-272H; first compound 0.8 µM): 0.739
- relative viability (EPLC-272H; first compound 2.53 µM): 0.666
- relative viability (COR-L 105; first compound 0.08 µM): 0.734
- relative viability (COR-L 105; first compound 0.253 µM): 0.711
- relative viability (COR-L 105; first compound 0.8 µM): 0.642
- relative viability (COR-L 105; first compound 2.53 µM): 0.691
- relative viability (NCI-H727; first compound 0.08 µM): 0.69
- relative viability (NCI-H727; first compound 0.253 µM): 0.768
- relative viability (NCI-H727; first compound 0.8 µM): 0.711
- relative viability (NCI-H727; first compound 2.53 µM): 0.735
- relative viability (NCI-H2087; first compound 0.08 µM): 0.671
- relative viability (NCI-H2087; first compound 0.8 µM): 0.635
- relative viability (NCI-H2087; first compound 2.53 µM): 0.459
- relative viability (H3255; first compound 0.08 µM): 0.585
- relative viability (H3255; first compound 0.253 µM): 0.543
- relative viability (H3255; first compound 0.8 µM): 0.542
- relative viability (H3255; first compound 2.53 µM): 0.563
- relative viability (COR-L23; first compound 0.08 µM): 0.379
- relative viability (COR-L23; first compound 0.253 µM): 0.314
- relative viability (COR-L23; first compound 0.8 µM): 0.343
- relative viability (COR-L23; first compound 2.53 µM): 0.261
- relative viability (NCI-H1792; first compound 0.08 µM): 0.377
- relative viability (NCI-H1792; first compound 0.253 µM): 0.357
- relative viability (NCI-H1792; first compound 0.8 µM): 0.345
- relative viability (NCI-H1792; first compound 2.53 µM): 0.397
- relative viability (NCI-H1975; first compound 0.08 µM): 0.759
- relative viability (NCI-H1975; first compound 0.253 µM): 0.715
- relative viability (NCI-H1975; first compound 0.8 µM): 0.672
- relative viability (NCI-H1975; first compound 2.53 µM): 0.502
- relative viability (EKVX; first compound 0.08 µM): 0.939
- relative viability (EKVX; first compound 0.253 µM): 0.814
- relative viability (EKVX; first compound 0.8 µM): 0.715
- relative viability (EKVX; first compound 2.53 µM): 0.85
- relative viability (NCI-H358; first compound 0.08 µM): 0.578
- relative viability (NCI-H358; first compound 0.253 µM): 0.522
- relative viability (NCI-H358; first compound 0.8 µM): 0.555
- relative viability (NCI-H358; first compound 2.53 µM): 0.517
- relative viability (NCI-H1650; first compound 0.08 µM): 0.724
- relative viability (NCI-H1650; first compound 0.253 µM): 0.737
- relative viability (NCI-H1650; first compound 0.8 µM): 0.808
- relative viability (NCI-H1650; first compound 2.53 µM): 0.868
- relative viability (HCC-44; first compound 0.08 µM): 0.934
- relative viability (HCC-44; first compound 0.253 µM): 0.946
- relative viability (HCC-44; first compound 0.8 µM): 1.04
- relative viability (HCC-44; first compound 2.53 µM): 0.989
- relative viability (ABC-1; first compound 0.08 µM): 0.788
- relative viability (ABC-1; first compound 0.253 µM): 0.834
- relative viability (ABC-1; first compound 0.8 µM): 0.78
- relative viability (ABC-1; first compound 2.53 µM): 0.763
- relative viability (NCI-H520; first compound 0.08 µM): 0.366
- relative viability (NCI-H520; first compound 0.253 µM): 0.3
- relative viability (NCI-H520; first compound 0.8 µM): 0.354
- relative viability (NCI-H520; first compound 2.53 µM): 0.311
- relative viability (LCLC-103H; first compound 0.08 µM): 0.837
- relative viability (LCLC-103H; first compound 0.253 µM): 0.673
- relative viability (LCLC-103H; first compound 0.8 µM): 0.731
- relative viability (LCLC-103H; first compound 2.53 µM): 0.818
- relative viability (NCI-H661; first compound 0.08 µM): 0.736
- relative viability (NCI-H661; first compound 0.253 µM): 0.759
- relative viability (NCI-H661; first compound 0.8 µM): 0.7
- relative viability (NCI-H661; first compound 2.53 µM): 0.654
